Measured values as given in the supplement of paper PMC4932681.

Tests used:
T-47D Tam1 [1] = assay: relative IC50 (midpoint of fitted logistic curve, plateau may be below 50% inhibition; CellTiter-Glo viability); higher = less potent; settings: 4-OH-tamoxifen in medium 1 µM; 72 h
Summary of the method: (§1)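 After seeding into 384-well plates with library drugs at five concentrations spanning a 10 000-fold range, breast cancer cell lines and their resistant derivatives were incubated 72 h at 37 °C. Resistant lines received medium with 1 μM of the selecting drug. CellTiter-Glo signal was read on a PHERAstar and scaled to vehicle-only and positive controls. Drug sensitivity score, relative IC50 (the curve midpoint) and top-dose inhibition came from logistic fits run in the Breeze pipeline.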

MCF-7 Tam1 [2] = assay: as above; settings: 4-OH-tamoxifen in medium 1 µM; 72 h
Summary of the method: as §1

ZR-75-1 Tam1 [3] = assay: as above; settings: 4-OH-tamoxifen in medium 1 µM; 72 h
Summary of the method: as §1

T-47D [4] = assay: as above; settings: 72 h
Summary of the method: as §1

ZR-75-1 Tam2 [5] = assay: as above; settings: 4-OH-tamoxifen in medium 1 µM; 72 h
Summary of the method: as §1

MCF-7 [6] = assay: as above; settings: 72 h
Summary of the method: as §1

BT-474 [7] = assay: as above; settings: 72 h
Summary of the method: as §1

ZR-75-1 [8] = assay: as above; settings: 72 h
Summary of the method: as §1

BT-474 Tam2 [9] = assay: as above; settings: 4-OH-tamoxifen in medium 1 µM; 72 h
Summary of the method: as §1

T-47D Tam2 [10] = assay: as above; settings: 4-OH-tamoxifen in medium 1 µM; 72 h
Summary of the method: as §1

BT-474 Tam1 [11] = assay: as above; settings: 4-OH-tamoxifen in medium 1 µM; 72 h
Summary of the method: as §1

T-47D Tam1 [12] = assay: drug sensitivity score (DSS) (DSS (dimensionless)); higher = more sensitive; extreme values may be limits of the assay; settings: 4-OH-tamoxifen in medium 1 µM; 72 h
Summary of the method: as §1

MCF-7 Tam1 [13] = assay: as above; settings: 4-OH-tamoxifen in medium 1 µM; 72 h
Summary of the method: as §1

ZR-75-1 Tam1 [14] = assay: as above; settings: 4-OH-tamoxifen in medium 1 µM; 72 h
Summary of the method: as §1

T-47D [15] = assay: as above; settings: 72 h
Summary of the method: as §1

ZR-75-1 Tam2 [16] = assay: as above; settings: 4-OH-tamoxifen in medium 1 µM; 72 h
Summary of the method: as §1

MCF-7 [17] = assay: as above; settings: 72 h
Summary of the method: as §1

BT-474 [18] = assay: as above; settings: 72 h
Summary of the method: as §1

ZR-75-1 [19] = assay: as above; settings: 72 h
Summary of the method: as §1

BT-474 Tam2 [20] = assay: as above; settings: 4-OH-tamoxifen in medium 1 µM; 72 h
Summary of the method: as §1

T-47D Tam2 [21] = assay: as above; settings: 4-OH-tamoxifen in medium 1 µM; 72 h
Summary of the method: as §1

BT-474 Tam1 [22] = assay: as above; settings: 4-OH-tamoxifen in medium 1 µM; 72 h
Summary of the method: as §1

Structure (SMILES) | relative IC50 (T-47D Tam1 [1]) [µM] | relative IC50 (MCF-7 Tam1 [2]) [µM] | relative IC50 (ZR-75-1 Tam1 [3]) [µM] | relative IC50 (T-47D [4]; 4-OH-tamoxifen in medium 0 µM) [µM] | relative IC50 (T-47D [4]; 4-OH-tamoxifen in medium 1 µM) [µM] | relative IC50 (ZR-75-1 Tam2 [5]) [µM] | relative IC50 (MCF-7 [6]; 4-OH-tamoxifen in medium 0 µM) [µM] | relative IC50 (BT-474 [7]; 4-OH-tamoxifen in medium 0 µM) [µM] | relative IC50 (BT-474 [7]; 4-OH-tamoxifen in medium 1 µM) [µM] | relative IC50 (ZR-75-1 [8]; 4-OH-tamoxifen in medium 0 µM) [µM] | relative IC50 (ZR-75-1 [8]; 4-OH-tamoxifen in medium 1 µM) [µM] | relative IC50 (BT-474 Tam2 [9]) [µM] | relative IC50 (T-47D Tam2 [10]) [µM] | relative IC50 (BT-474 Tam1 [11]) [µM] | drug sensitivity score (T-47D Tam1 [12]) | drug sensitivity score (MCF-7 Tam1 [13]) | drug sensitivity score (ZR-75-1 Tam1 [14]) | drug sensitivity score (T-47D [15]; 4-OH-tamoxifen in medium 0 µM) | drug sensitivity score (T-47D [15]; 4-OH-tamoxifen in medium 1 µM) | drug sensitivity score (ZR-75-1 Tam2 [16]) | drug sensitivity score (MCF-7 [17]; 4-OH-tamoxifen in medium 0 µM) | drug sensitivity score (MCF-7 [17]; 4-OH-tamoxifen in medium 1 µM) | drug sensitivity score (BT-474 [18]; 4-OH-tamoxifen in medium 0 µM) | drug sensitivity score (BT-474 [18]; 4-OH-tamoxifen in medium 1 µM) | drug sensitivity score (ZR-75-1 [19]; 4-OH-tamoxifen in medium 0 µM) | drug sensitivity score (ZR-75-1 [19]; 4-OH-tamoxifen in medium 1 µM) | drug sensitivity score (BT-474 Tam2 [20]) | drug sensitivity score (T-47D Tam2 [21]) | drug sensitivity score (BT-474 Tam1 [22]) | relative IC50 (MCF-7 [6]; 4-OH-tamoxifen in medium 1 µM) [µM]
CN(C)/N=N/c1[nH]cnc1C(N)=O [Dacarbazine] | > 10 | > 10 | > 10 | > 10 | > 10 | > 10 | > 10 | > 10 | > 10 | > 10 | > 10 | > 10 | > 10 | > 10 | 0 | 0 | 0 | 0 | 0 | 0 | 0 | 0.0214 | 0 | 0 | 0 | 0 | 0 | 0 | 0 | –
O=C1CCC(N2C(=O)c3ccccc3C2=O)C(=O)N1 (centres undefined) [Thalidomide] | > 10 | > 10 | > 10 | > 10 | – | > 10 | > 10 | > 10 | > 10 | > 10 | – | > 10 | > 10 | > 10 | 0 | 0 | 0 | 0 | 0 | 0 | 0 | 0 | 0 | 0 | 0 | 0.0754 | 0 | 0 | 0 | > 10
CNNCc1ccc(C(=O)NC(C)C)cc1 [Procarbazine] | > 10 | > 10 | > 10 | > 10 | > 10 | > 10 | > 10 | > 10 | > 10 | > 10 | > 10 | > 10 | > 10 | > 10 | 0 | 0 | 0 | 0 | 0 | 0 | 0 | 0 | 0 | 0 | 0 | 0 | 0 | 0 | 0 | > 10
Nc1nc2[nH]cc(CCc3ccc(C(=O)N[C@@H](CCC(=O)O)C(=O)O)cc3)c2c(=O)[nH]1 [Pemetrexed] | > 10 | > 10 | > 10 | > 10 | – | > 10 | > 10 | > 10 | > 10 | > 10 | > 10 | > 10 | > 10 | > 10 | 0 | 0 | 0 | 0 | 0 | 0 | 0 | 0.305 | 0 | 0 | 0 | 0 | 0 | 0 | 0 | –
NCCCNCCSP(=O)(O)O [Amifostine] | > 10 | > 10 | > 10 | > 10 | > 10 | > 10 | > 10 | > 10 | > 10 | > 10 | > 10 | > 10 | > 10 | > 10 | 0 | 0 | 0 | 0 | 0 | 0 | 0 | 0 | 0 | 0 | 0 | 0 | 0 | 0 | 0 | > 10
CCc1c(C(=O)C(N)=O)c2c(OCC(=O)O)cccc2n1Cc1ccccc1 [Varespladib] | > 10 | > 10 | > 10 | > 10 | > 10 | > 10 | – | > 10 | > 10 | > 10 | > 10 | > 10 | > 10 | > 10 | 0 | 0 | 0 | 0 | 0 | 0 | 0.0495 | 0 | 0 | 0 | 0 | 0 | 0 | 0 | 0 | > 10
Cc1c2oc3c(C)ccc(C(=O)N[C@@H]4C(=O)N[C@H](C(C)C)C(=O)N5CCC[C@H]5C(=O)N(C)CC(=O)N(C)[C@@H](C(C)C)C(=O)O[C@@H]4C)c3nc-2c(C(=O)N[C@@H]2C(=O)N[C@H](C(C)C)C(=O)N3CCC[C@H]3C(=O)N(C)CC(=O)N(C)[C@@H](C(C)C)C(=O)O[C@@H]2C)c(N)c1=O [Dactinomycin] | 0.00817 | 0.0241 | 0.00956 | 0.00779 | 0.00851 | 0.00833 | 0.0114 | 0.0227 | 0.0275 | 0.0045 | 0.00903 | 0.0352 | 0.00876 | 0.0189 | 18.2 | 16.1 | 19.8 | 16.8 | 12 | 23.2 | 20.2 | 20 | 11.2 | 17.9 | 20.5 | 17.4 | 16.1 | 16 | 20.1 | 0.0135
